# Assay results published in US20030228357A1, “Dry granulated formulations of azithromycin” (Pfizer Inc., priority 2002, published 2003).
# What was measured:
# [1] = Tablet disintegration time, Automatic Disintegration Tester; type: physicochemical; settings: Table 2A; Long blend; Oval tooling; distilled water at 37° C.
# Method: The disintegration time was determined in distilled water at 37° C. using an Automatic Disintegration Tester (Model ZT72, Erweka USA Inc, Milford, Conn.) for the long blend tablets. Even with extensive blending times with magnesium stearate, reasonably short disintegration times of 15 and 20 seconds were obtained.
# [2] = Tablet friability, Vanderkamp Friabulator (100 rotations/4 minutes); type: physicochemical; settings: Table 4D; high drug loading; diluent DCP, dihyd.; modified capsule shape
smiles,measurement,setting,value
"CC[C@H]1OC(=O)[C@H](C)[C@@H](O[C@H]2C[C@@](C)(OC)[C@@H](O)[C@H](C)O2)[C@H](C)[C@@H](O[C@@H]2O[C@H](C)C[C@H](N(C)C)[C@H]2O)[C@](C)(O)C[C@@H](C)CN(C)[C@H](C)[C@@H](O)[C@]1(C)O [Form A, azithromycin dihydrate, reference compound]",Mean disintegration Time,[1],15 s
same,Friability,[2],0.49%
